Experimental data reported in patent US20100184653A1, “Derivates of Polyethylene Glycol Modified Thymosin Alpha 1” (Jiangsu Hansen Pharmaceutical Co., Ltd., priority 2008, published 2010).
Residues, ends and D or L forms follow the SMILES beside them. No end group written: not given here.

Assays:
[1] = Pharmacokinetic test, half life after hypodermic injection; conditions: in vivo, subcutaneous
[2] = in body; cited from earlier work
[3] = system: T-lymphocytes (mice's spleen cells); assay: ConA-induced IFN-γ production by mouse spleen T lymphocytes, ELISA of culture supernatant; format: cell-based, ICR mice; set-up: Mean (IFN-γ, ConA-induced cytokine production): unit not given here; conditions: for Mean (IFN-γ, ConA-induced cytokine production): 24 hours
Description: (§1) With Zadaxin as a positive control, the effect of the samples on T-lymphocytes producing cytokines were tested to confirm if the samples could adjust T-lymphocyte immune activity and the extent thereof.
(§2) In the lymphocytes cultured in vitro, T cell can be activated by the stimulation of mitosis Concanavalin A and brings change of cells' behavior such as cytokine synthesis, cytokine receptor expression, cell differentiation and cell proliferation. The generation of cytokine and proliferation of the cell are response of the immune cell function and cell activation. Detection means is reliable, simple, and with good repeatability, therefore, evaluating the samples' effect to the function of T lymphocytes by detecting cytokine generation and cell proliferation has been widely applied.
(§3) Preparation of spleen cell suspension: mice's spleen was obtained under aseptic condition, which was ground with frosted glass. The spleen cell suspension was thus obtained. After red blood lysis, the spleen cell suspension was washed three times, counted (live cells being more than 95%). The concentration of spleen cell was adjusted to 5×10^6 cells/ml with 10% FBS (bovine serum) RPMI1640 culture fluid.
(§4) The concentration of mice's Spleen cells was adjusted to 5×10^6 cells/ml, and then distributed it into 24 wells plate with 1 ml/well; samples with various concentrations were added into the plate respectively with 0.5 ml/well; and then ConA (20 ug/ml) was added with 0.5 ml/well. The samples were kept at 37° C. in CO2 incubator for 24 hours, centrifuged and collected culture supernatant.
(§5) Antibody Coating: The antibody was diluted with coating buffer and then was added into 96 well ELISA plates with 50 μL each wells. The plate was left overnight at […].
(§6) Blocking: The antibody coating buffer was removed, and the plate was washed 3 times with washing solution (PBS/Tween solution). 100 μL of blocking buffer (PBS/10% FBS) was added to each wells of the plates. The plate was incubated at room temperature for 1 hour.
(§7) Standards and samples: The blocking buffer was removed from the plates, which was washed 3 times with washing solution (PBS/Tween solution) and followed by adding standards and samples with 50 μL each wells. The plate was incubated at room temperature for 2 hours.
(§8) Detection of Antibody and Enzyme: The standards and samples were removed from the plates. The plate was washed 3 times with washing solution (PBS/Tween solution). The diluted detective antibody and enzyme HRP were added into the plate with 50 μL each wells. The plate was incubated at room temperature for 1 hour.
(§9) Substrate Staining: The diluted detection antibody and enzyme HRP were removed from the plate which was then washed 3 times with washing solution (PBS/Tween solution). The substrate resolved in citricic acid/hydrogen peroxide (TMB) was added into the plate with 50 μL each wells. The plate was incubated at room temperature away from the light for 30 minutes. After being stained, stop solution 2N H2SO4 was added into the plate with 25 μL per well.
(§10) OD Detection: The plate was placed into enzyme-labeled instrument and read OD values at 450 nm (calibrated value of 570 nm).

[4] = system: T-lymphocytes (mice's spleen cells); assay: ConA-induced IL-2 production by mouse spleen T lymphocytes, ELISA of culture supernatant; format: cell-based, ICR mice; set-up: unit not given here; conditions: 24 hours
Description: as §1, §2, §3, §4, §5, §6, §7, §8, §9, §10

Compound | half-life [1] | T1/2 [2] | activity of promoting the production of IFN-r by T cells ([3]; all experimental concentrations) | promoting the production of IFN-r by T cells ([3]; compared with PEG-TA1) | Mean (IFN-γ, ConA-induced cytokine production) ([3]; sample 0.001 ug/ml) | Mean (IFN-γ, ConA-induced cytokine production) ([3]; sample 0.01 ug/ml) | Mean (IFN-γ, ConA-induced cytokine production) ([3]; sample 0.1 ug/ml) | Mean (IFN-γ, ConA-induced cytokine production) ([3]; sample 1 ug/ml) | Mean (IFN-γ, ConA-induced cytokine production) ([3]; sample 10 ug/ml) | Mean (IFN-γ, ConA-induced cytokine production) ([3]; sample 100 ug/ml) | Mean (IL-2, ConA-induced cytokine production) ([4]; sample 0.001 ug/ml) | Mean (IL-2, ConA-induced cytokine production) ([4]; sample 0.01 ug/ml) | Mean (IL-2, ConA-induced cytokine production) ([4]; sample 0.1 ug/ml) | Mean (IL-2, ConA-induced cytokine production) ([4]; sample 1 ug/ml) | Mean (IL-2, ConA-induced cytokine production) ([4]; sample 10 ug/ml) | Mean (IL-2, ConA-induced cytokine production) ([4]; sample 100 ug/ml) | stimulation of the production of IFN-r by T cells ([3]; compared with Zadaxin, several experimental concentration)
CC[C@H](C)[C@H](NC(=O)[C@H](CCC(=O)O)NC(=O)[C@H](CO)NC(=O)[C@H](CO)NC(=O)[C@@H](NC(=O)[C@H](CC(=O)O)NC(=O)[C@@H](NC(=O)[C@H](C)NC(=O)[C@H](C)NC(=O)[C@H](CC(=O)O)NC(=O)[C@H](CO)NC(C)=O)C(C)C)[C@@H](C)O)C(=O)N[C@H](C(=O)N[C@H](C(=O)N[C@@H](CCCCN)C(=O)N[C@@H](CC(=O)O)C(=O)N[C@@H](CC(C)C)C(=O)N[C@@H](CCCCN)C(=O)N[C@@H](CCC(=O)O)C(=O)N[C@@H](CCCCN)C(=O)N[C@@H](CCCCN)C(=O)N[C@@H](CCC(=O)O)C(=O)N[C@H](C(=O)N[C@H](C(=O)N[C@@H](CCC(=O)O)C(=O)N[C@@H](CCC(=O)O)C(=O)N[C@@H](C)C(=O)N[C@@H](CCC(=O)O)C(=O)N[C@@H](CC(N)=O)C(=O)O)C(C)C)C(C)C)[C@@H](C)O)[C@@H](C)O [Zadaxin, thymosin alpha 1] (Ac-SDAAVDTSSEITTKDLKEKKEVVEEAEN-OH) | ~2 h | 2 h | – | – | – | – | – | – | – | – | – | – | – | – | – | – | –
Ac-Ser-Asp-Ala-Ala-Val-Asp-Thr-Ser-Ser-Glu-Ile-Thr-Thr-Lys-Asp-Leu-Lys-Glu-Lys-Lys-Glu-Val-Val-Glu-Glu-Ala-Glu-Asn-Gly-Gly-Cys-PEG40K (Ac-SDAAVDTSSEITTKDLKEKKEVVEEAENGG-{C(branched 40K mPEG-maleimide)}) [T-GG-C-mPEG, thymosin alpha 1 peptide derivative modified with PEG; PEG40K: branched-chain (mPEG)2-MAL] | – | – | showed activity | more effective than the thymosin alpha 1 modified with PEG at the N-terminal | 4703 | 4891 | 4654 | 4990 | 5102 | 5577 | 3409 | 3610 | 3530 | 3397 | 3618 | 3692 | –
PEG-TA1: thymosin alpha 1 modified with PEG (derivative when n was 0); b135 calls it modified at the N-terminal (SDAAVDTSSEITTKDLKEKKEVVEEAEN; not fully specified (N-terminus); ends and bridges not checked; also: PEG attached, site unclear; UniProt P06454 2-29, looked up) | – | – | – | – | 4809 | 4603 | 4141 | 4949 | 3874 | 5467 | 3505 | 3438 | 3339 | 3214 | 3348 | 3582 | more effective
